Reference: the NIST ThermoML archive (doi:10.1021/acs.jced.8b00070)

Experiment: xn = mol fraction of the nth substance listed
Conditions: Liquid; for viscosity: Oscillating disk viscometry; for mass density: Vibrating tube method

CCCCn1cc[n+](C)c1.F[B-](F)(F)F [1-butyl-3-methylimidazolium tetrafluoroborate] + O
Conditions | mass density, x1 = 0.01 [kg/m3] | mass density, x1 = 0.0227 [kg/m3] | mass density, x1 = 0.0392 [kg/m3] | mass density, x1 = 0.0616 [kg/m3] | mass density, x1 = 0.0938 [kg/m3] | viscosity, x1 = 0.01 [mPa·s] | viscosity, x1 = 0.0227 [mPa·s] | viscosity, x1 = 0.0392 [mPa·s] | viscosity, x1 = 0.0616 [mPa·s] | viscosity, x1 = 0.0938 [mPa·s]
293.15 K, 101 kPa | – | – | – | – | – | 1.07 | 1.35 | 1.84 | 2.28 | 3.04
293.15 K, 101.3 kPa | 1018.9 | 1038.1 | 1060.4 | 1079.5 | 1103.7 | – | – | – | – | –
298.15 K, 101 kPa | – | – | – | – | – | 0.95 | 1.19 | 1.6 | 1.98 | 2.69
298.15 K, 101.3 kPa | 1017.1 | 1036 | 1058 | 1076.7 | 1100.6 | – | – | – | – | –
303.15 K, 101 kPa | – | – | – | – | – | 0.84 | 1.05 | 1.4 | 1.75 | 2.34
303.15 K, 101.3 kPa | 1015.2 | 1033.5 | 1055.3 | 1073.6 | 1097.2 | – | – | – | – | –
308.15 K, 101 kPa | – | – | – | – | – | 0.76 | 0.95 | 1.25 | 1.56 | 2.06
308.15 K, 101.3 kPa | 1013.2 | 1031.3 | 1052.6 | 1070.7 | 1093.9 | – | – | – | – | –
313.15 K, 101 kPa | – | – | – | – | – | 0.69 | 0.86 | 1.13 | 1.4 | 1.84
313.15 K, 101.3 kPa | 1010.9 | 1028.6 | 1049.8 | 1067.5 | 1090.5 | – | – | – | – | –
318.15 K, 101 kPa | – | – | – | – | – | 0.64 | 0.79 | 1.02 | 1.27 | 1.66
318.15 K, 101.3 kPa | 1008.6 | 1025.9 | 1046.9 | 1064.3 | 1087.4 | – | – | – | – | –
323.15 K, 101 kPa | – | – | – | – | – | 0.59 | 0.74 | 0.94 | 1.16 | 1.48
323.15 K, 101.3 kPa | 1006.1 | 1023.4 | 1044 | 1061.2 | 1084.1 | – | – | – | – | –
328.15 K, 101 kPa | – | – | – | – | – | 0.55 | 0.69 | 0.88 | 1.07 | 1.31
328.15 K, 101.3 kPa | 1001.8 | 1019.8 | 1041.4 | 1058.3 | 1080.9 | – | – | – | – | –
333.15 K, 101 kPa | – | – | – | – | – | 0.53 | 0.62 | 0.82 | 0.99 | 1.26
333.15 K, 101.3 kPa | 999.2 | 1017.6 | 1040.6 | 1057.4 | 1079.9 | – | – | – | – | –

NCCO [2-aminoethan-1-ol] + O
101.3 kPa
Conditions | mass density, x1 = 0.0394 [kg/m3] | mass density, x1 = 0.087 [kg/m3] | mass density, x1 = 0.1456 [kg/m3] | mass density, x1 = 0.2197 [kg/m3] | viscosity, x1 = 0.0394 [mPa·s] | viscosity, x1 = 0.087 [mPa·s] | viscosity, x1 = 0.1456 [mPa·s] | viscosity, x1 = 0.2197 [mPa·s]
293.15 K | 1005.3 | 1011.8 | 1018.9 | 1025.7 | 1.19 | 2.1 | 3.06 | 5.58
298.15 K | 1003.8 | 1009.9 | 1016.3 | 1022.7 | 1.06 | 1.71 | 2.69 | 4.67
303.15 K | 1002.1 | 1007.7 | 1013.7 | 1019.7 | 0.94 | 1.47 | 2.29 | 3.91
308.15 K | 1000.3 | 1005.6 | 1011.2 | 1016.8 | 0.85 | 1.3 | 1.91 | 3.28
313.15 K | 998.2 | 1003.2 | 1008.5 | 1013.6 | 0.76 | 1.15 | 1.69 | 2.77
318.15 K | 996 | 1000.7 | 1005.7 | 1010.5 | 0.69 | 1.03 | 1.5 | 2.39
323.15 K | 993.8 | 998.2 | 1002.8 | 1007.3 | 0.63 | 0.93 | 1.33 | 2.11
328.15 K | 988.9 | 995.8 | 1000.1 | 1004.4 | 0.58 | 0.85 | 1.17 | 1.85
333.15 K | 987.2 | 995.1 | 999.3 | 1003.2 | 0.54 | 0.79 | 1.05 | 1.65
